In patent US10590140B2, “Tetrahydropyrimidodiazepine and dihydropyridodiazepine compounds for treating pain and pain related conditions” (ESTEVE PHARMACEUTICALS, S.A., priority 2016, dated 2020) one finds Ki data, which are given here for 22 molecules.

Test [1] concerns the target human α2δ-1 subunit of Cav2.2 calcium channel (Homo sapiens (Human), UniProt P54289). The test can be described thus: Binding assay to human α2δ-1 subunit of Cav2.2 calcium channel ([3H]-Gabapentin). Conditions: read-out: Ki (nM) α2δ-1. In outline:
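Radioactivity on dried GF/C filters quantified by scintillation after filtration and three cold Tris-HCl (pH 7.4) washes. Incubation ran 60 min at 27° C with [3H]-gabapentin; 10 μM pregabalin gave nonspecific binding.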

Test [2] concerns the target human norepinephrine transporter (NET) (Homo sapiens (Human), UniProt P23975). Put plainly: Binding assay to human norepinephrine transporter (NET) ([3H]-Nisoxetin). Conditions: Table 2, dual compounds; [3H]-Nisoxetin binding. The protocol:
Binding Assay to Human Norepinephrine Transporter (NET).
Human norepinephrine transporter (NET) enriched membranes (5 μg) were incubated with 5 nM of radiolabeled [3H]-Nisoxetin in assay buffer containing 50 mM Tris-HCl, 120 mM NaCl, 5 mM KCl, pH 7.4.
NSB (non specific binding) was measured by adding 1 μM. After 60 min incubation at 4° C., binding reaction was terminated by filtering through Multiscreen GF/C (Millipore) presoaked in 0.5% polyethyleneimine in Vacuum Manifold Station, followed by 3 washes with ice-cold filtration buffer containing 50 mM Tris-HCl, 0.9% NaCl, pH 7.4.
Filter plates were dried at 60° C. for 1 hour and 30 μl of scintillation cocktail were added to each well before radioactivity reading.

Setting [3] is: Table 2, dual compounds, [3H]-Gabapentin binding.
Setting [4] is: binding to α2δ-1, [3H]-Gabapentin.

Where two headings read alike, the source gives them in different places.

human α2δ-1 subunit of Cav2.2 calcium channel, sequence (P54289 25-1103): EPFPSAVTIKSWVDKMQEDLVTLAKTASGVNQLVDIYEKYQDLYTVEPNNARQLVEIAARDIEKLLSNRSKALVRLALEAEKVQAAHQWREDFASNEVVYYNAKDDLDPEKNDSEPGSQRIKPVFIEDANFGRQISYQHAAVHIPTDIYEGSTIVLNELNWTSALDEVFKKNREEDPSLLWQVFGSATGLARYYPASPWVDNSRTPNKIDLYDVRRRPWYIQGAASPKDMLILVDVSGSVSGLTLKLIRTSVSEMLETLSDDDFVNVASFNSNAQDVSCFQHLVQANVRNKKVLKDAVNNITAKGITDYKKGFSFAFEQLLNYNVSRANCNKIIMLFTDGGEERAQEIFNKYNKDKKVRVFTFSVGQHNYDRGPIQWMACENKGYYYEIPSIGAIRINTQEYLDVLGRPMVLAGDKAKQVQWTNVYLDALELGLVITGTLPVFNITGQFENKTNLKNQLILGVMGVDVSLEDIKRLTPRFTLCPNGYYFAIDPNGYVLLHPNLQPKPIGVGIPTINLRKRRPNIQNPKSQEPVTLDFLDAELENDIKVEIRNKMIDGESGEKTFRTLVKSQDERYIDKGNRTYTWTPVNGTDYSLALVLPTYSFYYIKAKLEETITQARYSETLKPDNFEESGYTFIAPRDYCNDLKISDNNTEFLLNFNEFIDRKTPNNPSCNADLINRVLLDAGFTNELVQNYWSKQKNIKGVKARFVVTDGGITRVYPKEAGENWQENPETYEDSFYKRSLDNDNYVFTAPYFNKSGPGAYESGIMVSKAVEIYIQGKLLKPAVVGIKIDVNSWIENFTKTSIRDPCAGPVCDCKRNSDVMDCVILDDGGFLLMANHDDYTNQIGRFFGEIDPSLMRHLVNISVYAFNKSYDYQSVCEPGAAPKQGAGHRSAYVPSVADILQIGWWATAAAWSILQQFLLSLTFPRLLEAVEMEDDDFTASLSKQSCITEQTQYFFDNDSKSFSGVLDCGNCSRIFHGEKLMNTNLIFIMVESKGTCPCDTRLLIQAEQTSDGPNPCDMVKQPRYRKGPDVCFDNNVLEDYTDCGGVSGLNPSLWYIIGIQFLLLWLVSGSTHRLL
human norepinephrine transporter (NET), sequence (P23975 whole entry): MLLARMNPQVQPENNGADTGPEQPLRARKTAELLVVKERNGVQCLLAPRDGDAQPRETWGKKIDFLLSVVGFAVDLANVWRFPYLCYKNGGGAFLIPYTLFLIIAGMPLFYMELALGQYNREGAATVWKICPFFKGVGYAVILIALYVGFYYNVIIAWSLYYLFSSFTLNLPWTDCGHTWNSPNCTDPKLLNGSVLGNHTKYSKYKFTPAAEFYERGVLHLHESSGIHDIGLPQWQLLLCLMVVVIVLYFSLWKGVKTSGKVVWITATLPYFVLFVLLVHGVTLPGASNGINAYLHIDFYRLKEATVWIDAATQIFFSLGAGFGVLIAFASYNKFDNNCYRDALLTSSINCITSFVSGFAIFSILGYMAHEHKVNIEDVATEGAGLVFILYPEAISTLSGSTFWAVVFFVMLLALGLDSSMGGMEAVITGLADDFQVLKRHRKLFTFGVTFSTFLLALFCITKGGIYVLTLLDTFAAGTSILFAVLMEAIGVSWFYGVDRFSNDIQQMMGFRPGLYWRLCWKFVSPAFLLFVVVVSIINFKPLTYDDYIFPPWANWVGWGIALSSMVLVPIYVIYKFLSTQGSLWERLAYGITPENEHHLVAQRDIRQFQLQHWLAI

Regarding `CCNc1ncc2c(n1)N(C)CCN(c1cccc(OC(CCNC)c3ccccn3)c1)C2=O` (stereo not drawn) [Example 193, 2-(ethylamino)-9-methyl-6-(3-(3-(methylamino)-1-(pyridin-2-yl)propoxy)phenyl)-6,7,8,9-tetrahydro-5H-pyrimido[4,5-e][1,4]diazepin-5-one], the figures for the Ki in test [1] (setting [3]), in test [1] (setting [4]) and in test [2] were 500 to 3000 nM, 500 to 3000 nM and more than 1000 nM, respectively.

With `CCNc1ncc2c(n1)N(C)CCN(c1cccc(OC(CCNC)c3cccnc3)c1)C2=O` (stereo not drawn) [Example 194, 2-(ethylamino)-9-methyl-6-(3-(3-(methylamino)-1-(pyridin-3-yl)propoxy)phenyl)-6,7,8,9-tetrahydro-5H-pyrimido[4,5-e][1,4]diazepin-5-one], the figures for the Ki in test [1] (setting [3]), in test [1] (setting [4]) and in test [2] were 500 to 3000 nM, 500 to 3000 nM and more than 1000 nM, respectively.

As for `CNCC[C@@H](OCc1cccc(N2CCN(C)c3nc(N)ncc3C2=O)c1)c1ccccc1` [Example 195, (R)-2-amino-9-methyl-6-(3-((3-(methylamino)-1-phenylpropoxy)methyl)phenyl)-6,7,8,9-tetrahydro-5H-pyrimido[4,5-e][1,4]diazepin-5-one], the Ki (usually a dissociation constant, usually derived from enzyme kinetics or from competition with a known ligand) in test [1] (setting [3]) was in the range of 500 to 3000 nM; in test [1] (setting [4]) it was 100 to 500 nM; in test [2], 500 to 1000 nM.

`CNCC[C@@H](OCc1cccc(N2CCN(C)c3nc(N(C)C)ncc3C2=O)c1)c1ccccc1` [Example 196, (R)-2-(dimethylamino)-9-methyl-6-(3-((3-(methylamino)-1-phenylpropoxy)methyl)phenyl)-6,7,8,9-tetrahydro-5H-pyrimido[4,5-e][1,4]diazepin-5-one]: the results for the Ki in test [1] (setting [3]), in test [1] (setting [4]) and in test [2] were 500 to 3000 nM, 500 to 3000 nM and 500 to 1000 nM, respectively.

With `CNCC[C@@H](OCc1cccc(N2CCN(C)c3nc(NC)ncc3C2=O)c1)c1ccccc1` [Example 197, (R)-9-methyl-2-(methylamino)-6-(3-((3-(methylamino)-1-phenylpropoxy)methyl)phenyl)-6,7,8,9-tetrahydro-5H-pyrimido[4,5-e][1,4]diazepin-5-one], the results for the Ki in test [1] (setting [3]), in test [1] (setting [4]) and in test [2] were 500 to 3000 nM, 500 to 3000 nM and 500 to 1000 nM, respectively.

Consider `CCNc1cc2c(cn1)C(=O)N(c1cccc(OC(CCNC)c3ccccc3)c1)CCN2C` (stereo not drawn) [Example 198, 8-(ethylamino)-1-methyl-4-(3-(3-(methylamino)-1-phenylpropoxy)phenyl)-1,2,3,4-tetrahydro-5H-pyrido[4,3-e][1,4]diazepin-5-one], for which the Ki in test [1] (setting [3]) was in the range of 500 to 3000 nM; in test [1] (setting [4]) it was 500 to 3000 nM; in test [2] it was 100 to 500 nM.

Consider `CCNc1cc2c(cn1)C(=O)N(c1cccc(COC(CCNC)c3ccccc3)c1)CCN2C` (stereo not drawn) [Example 199, 8-(ethylamino)-1-methyl-4-(3-((3-(methylamino)-1-phenylpropoxy)methyl)phenyl)-1,2,3,4-tetrahydro-5H-pyrido[4,3-e][1,4]diazepin-5-one], for which the Ki in test [1] (setting [3]) is 500 to 3000 nM; in test [1] (setting [4]), 500 to 3000 nM; in test [2] it was more than 1000 nM.

Consider `CCNc1ncc2c(n1)N(C)CCN(Cc1ccc(OC(CNC)c3ccccc3)cc1)C2=O` (stereo not drawn) [Example 201, 2-(ethylamino)-9-methyl-6-(4-(2-(methylamino)-1-phenylethoxy)benzyl)-6,7,8,9-tetrahydro-5H-pyrimido[4,5-e][1,4]diazepin-5-one], for which the Ki in test [1] (setting [3]) was more than 3000 nM; in test [1] (setting [4]) it was more than 3000 nM; in test [2], less than 100 nM.

For `CCNc1ncc2c(n1)N(C)CCN(c1cccc(CO[C@H](CCNC)c3ccccc3)c1)C2` [Example 203, (R)—N-ethyl-9-methyl-6-(3-((3-(methylamino)-1-phenylpropoxy)methyl)phenyl)-6,7,8,9-tetrahydro-5H-pyrimido[4,5-e][1,4]diazepin-2-amine], the results for the Ki in test [1] (setting [3]), in test [1] (setting [4]) and in test [2] were 500 to 3000 nM, 500 to 3000 nM and 500 to 1000 nM, respectively.

Regarding `CNCC[C@@H](OCc1cccc(N2CCN(C)c3nc(OC)ncc3C2=O)c1)c1ccccc1` [Example 204, (R)-2-methoxy-9-methyl-6-(3-((3-(methylamino)-1-phenylpropoxy)methyl)phenyl)-6,7,8,9-tetrahydro-5H-pyrimido[4,5-e][1,4]diazepin-5-one], the figures for the Ki in test [1] (setting [3]), in test [1] (setting [4]) and in test [2] were 500 to 3000 nM, 500 to 3000 nM and 100 to 500 nM, respectively.

As to `CNCC[C@@H](OCc1cccc(N2CCN(C)c3nc(C)ncc3C2=O)c1)c1ccccc1` [Example 206, (R)-2,9-dimethyl-6-(3-((3-(methylamino)-1-phenylpropoxy)methyl)phenyl)-6,7,8,9-tetrahydro-5H-pyrimido[4,5-e][1,4]diazepin-5-one], the Ki fell in the range of 100 to 500 nM in test [1] (setting [3]), 500 to 3000 nM in test [1] (setting [4]) and 100 to 500 nM in test [2].

Turning to `CNCC[C@@H](OCc1cccc(N2CCN(C)c3ncncc3C2=O)c1)c1ccccc1` [Example 207, (R)-9-methyl-6-(3-((3-(methylamino)-1-phenylpropoxy)methyl)phenyl)-6,7,8,9-tetrahydro-5H-pyrimido[4,5-e][1,4]diazepin-5-one], the Ki fell in the range of 500 to 3000 nM in test [1] (setting [3]), 500 to 3000 nM in test [1] (setting [4]) and 500 to 1000 nM in test [2].

Take `CNCCC(OCc1cccc(N2CCN(C)c3nc(SC)ncc3C2=O)c1)c1cccs1` (stereo not drawn) [Example 208, 9-Methyl-6-(3-((3-(methylamino)-1-(thiophen-2-yl)propoxy)methyl)phenyl)-2-(methylthio)-6,7,8,9-tetrahydro-5H-pyrimido[4,5-e][1,4]diazepin-5-one]: the Ki is 500 to 3000 nM in test [1] (setting [3]), 500 to 3000 nM in test [1] (setting [4]) and 500 to 1000 nM in test [2].

In the case of `CNCC[C@@H](OCc1cccc(N2CCN(C)c3nc(SC)ncc3C2=O)c1)c1cccs1` [Example 209, (R)-9-methyl-6-(3-((3-(methylamino)-1-(thiophen-2-yl)propoxy)methyl)phenyl)-2-(methylthio)-6,7,8,9-tetrahydro-5H-pyrimido[4,5-e][1,4]diazepin-5-one], the Ki in test [1] (setting [3]), in test [1] (setting [4]) and in test [2] was 100 to 500 nM throughout.

With `CNCC[C@H](OCc1cccc(N2CCN(C)c3nc(SC)ncc3C2=O)c1)c1cccs1` [Example 210, (S)-9-methyl-6-(3-((3-(methylamino)-1-(thiophen-2-yl)propoxy)methyl)phenyl)-2-(methylthio)-6,7,8,9-tetrahydro-5H-pyrimido[4,5-e][1,4]diazepin-5-one], the Ki in test [1] (setting [3]) is more than 3000 nM; in test [1] (setting [4]), more than 3000 nM; in test [2], 100 to 500 nM.

As to `CCNc1ncc2c(n1)N(C)CCN(c1cccc(COC(CNC)c3ccccc3)c1)C2=O` (stereo not drawn) [Example 225, 2-(Ethylamino)-9-methyl-6-(3-((2-(methylamino)-1-phenylethoxy)methyl)phenyl)-6,7,8,9-tetrahydro-5H-pyrimido[4,5-e][1,4]diazepin-5-one], the Ki was 500 to 3000 nM in test [1] (setting [3]), 500 to 3000 nM in test [1] (setting [4]) and more than 1000 nM in test [2].

For `CNCC(OCc1cccc(N2CCN(C)c3nc(SC)ncc3C2=O)c1)c1ccccc1` (stereo not drawn) [Example 226, 9-methyl-6-(3-((2-(methylamino)-1-phenylethoxy)methyl)phenyl)-2-(methylthio)-6,7,8,9-tetrahydro-5H-pyrimido[4,5-e][1,4]diazepin-5-one], the Ki in test [1] (setting [3]) was more than 3000 nM; in test [1] (setting [4]), more than 3000 nM; in test [2], 500 to 1000 nM.

For `CCNc1ncc2c(n1)N(C)CCN(c1cccc(CO[C@H](CCN(C)C)c3ccccc3)c1)C2=O` [Example 236, (R)-6-(3-((3-(Dimethylamino)-1-phenylpropoxy)methyl)phenyl)-2-(ethylamino)-9-methyl-6,7,8,9-tetrahydro-5H-pyrimido[4,5-e][1,4]diazepin-5-one], the Ki in test [1] (setting [3]) was 500 to 3000 nM; in test [1] (setting [4]), 500 to 3000 nM; in test [2], 500 to 1000 nM.

With `CCNc1ncc2c(n1)N(C)CCN(c1cccc(CO[C@@H](CCN(C)C)c3ccccc3)c1)C2=O` [Example 237, (S)-6-(3-((3-(dimethylamino)-1-phenylpropoxy)methyl)phenyl)-2-(ethylamino)-9-methyl-6,7,8,9-tetrahydro-5H-pyrimido[4,5-e][1,4]diazepin-5-one], the Ki in test [1] (setting [3]) was 500 to 3000 nM; in test [1] (setting [4]), 500 to 3000 nM; in test [2], more than 1000 nM.

Take `CCNc1ncc2c(n1)N(C)CCN(c1cccc(OC(CN(C)C)c3ccccc3)c1)C2=O` (stereo not drawn) [Example 239, 6-(3-(2-(dimethylamino)-1-phenylethoxy)phenyl)-2-(ethylamino)-9-methyl-6,7,8,9-tetrahydro-5H-pyrimido[4,5-e][1,4]diazepin-5-one]: the Ki in test [1] (setting [3]) was more than 3000 nM; in test [1] (setting [4]), more than 3000 nM; in test [2], 500 to 1000 nM.

Consider `CCNc1ncc2c(n1)N(C)CCN(c1cccc(-n3cc(CN(C)Cc4ccccc4)nn3)c1)C2=O` [Example 243, 6-(3-(4-((benzyl(methyl)amino)methyl)-1H-1,2,3-triazol-1-yl)phenyl)-2-(ethylamino)-9-methyl-6,7,8,9-tetrahydro-5H-pyrimido[4,5-e][1,4]diazepin-5-one], for which the Ki in test [1] (setting [3]) is 500 to 3000 nM; in test [1] (setting [4]), 500 to 3000 nM; in test [2] it was less than 100 nM.

For `CCNc1ncc2c(n1)N(C)CCN(c1cccc(-n3cc(CN(C)CCc4ccccc4)nn3)c1)C2=O` [Example 244, 2-(ethylamino)-9-methyl-6-(3-(4-((methyl(phenethyl)amino)methyl)-1H-1,2,3-triazol-1-yl)phenyl)-6,7,8,9-tetrahydro-5H-pyrimido[4,5-e][1,4]diazepin-5-one], the Ki in test [1] (setting [3]) is 500 to 3000 nM; in test [1] (setting [4]), 500 to 3000 nM; in test [2], less than 100 nM.
